# “Also recorded” adds a separate entry of the source.
# What was measured:
# HepG2 cells = assay: Shedding of ACE2 from HepG2 cells; format: cell-based; conditions: endogenous ACE2, phorbol ester treatment, data not shown
# [1] = system: ACE2 release from the plasma membrane of CHO cells expressing full-length human ACE2; assay: Shedding of ACE2 from Chinese hamster ovary cells (ACE2 activity in medium, QFS assay); format: cell-based; conditions: PMA 1 μM, 4 hr incubation
# Method: ACE2 catalytic activity was measured by cleavage of a quenched fluorescent substrate (QFS), namely (7-methoxycoumarin-4-yl)-acetyl-Ala-Pro-Lys(2,4-dinitrophenyl) as published in Vickers et al, 2002. The substrate is kept as stock at 5 mg/ml (7.14 mM) at −20° C. in DMSO, diluted 14.28-fold in ACE2 buffer (100 mM Tris-HCl, 1 M NaCl, pH 6.5) for a 500 μM working stock for assay. Assays were performed in black 96-well microtiter plates with 100 μl/well sample and ACE2 buffer in a final volume of 200 μl per well. In a separate series of wells, 100 μl/well sample, […] ACE2 buffer, and 20 μl/well of the specific ACE2 activity inhibitor, MLN-4760 (Millenium Pharmaceuticals, Cambridge, Mass., USA) at 100 mM is added. 50 μM QFS (20 μl/well) is then added to all wells.
# Reactions proceeded at 37° C. within a temperature-controlled fluorescence microplate reader (FLUOStar Optima, BMG Labtech, Offenburg, Germany) and continuous readings of the liberated fluorescence taken over a 4 hr period (λex=320 nm, λem =405 nm). Specific ACE2 activity was calculated by subtraction of fluorescence in the presence of MLN-4760 inhibitor from the fluorescence in the absence of the MLN-4760 inhibitor.
# Full-length human ACE2 was expressed in Chinese hamster ovary (CHO) cells using a modified DEAE-Dextran transfection method. […]
structure (smiles),measurement,setting,value
CCCCCCCCCCCCCC(=O)O[C@@H]1[C@@H](C)[C@@]2(O)[C@@H](C=C(CO)C[C@]3(O)C(=O)C(C)=C[C@@H]23)[C@@H]2C(C)(C)[C@]12OC(C)=O [PMA],shedding of ACE2,HepG2 cells,increased up to two-fold
same,ACE2 release from the plasma membrane (ACE2 catalytic activity in medium),[1],increased; also recorded: enhanced
same,ACE2 release from the plasma membrane (ACE2 catalytic activity in medium),[1]; listed as phorbol ester,increased up to two-fold

# — patent US20070042452A1, “Detection of plasma ACE2” (priority 2005, published 2007)
